Results from patent publication US10597649B2, “Tau protease compositions and methods of use” (Oligomerix, Inc., priority 2011, dated 2020).

Experiments:
Assay type in all cases: biochemical
tau 4R2N trimer protease = biological target: T1, tau 4R2N trimer protease (Homo sapiens, UniProt P10636); assay: Peptide assay (tau peptide 335-353, reverse-phase HPLC) used to screen serine protease inhibitors; conditions: 1 mM PMSF (also printed 1 μM), one hr at room temperature before peptide substrate
T1 construct: Stabilization buffer enables production of full length monomer, dimer and trimer for tau protease; made in house; host or cells: E. coli BL21 (DE3) Gold
T1 sequence (P10636 1-441 isoform P10636-8): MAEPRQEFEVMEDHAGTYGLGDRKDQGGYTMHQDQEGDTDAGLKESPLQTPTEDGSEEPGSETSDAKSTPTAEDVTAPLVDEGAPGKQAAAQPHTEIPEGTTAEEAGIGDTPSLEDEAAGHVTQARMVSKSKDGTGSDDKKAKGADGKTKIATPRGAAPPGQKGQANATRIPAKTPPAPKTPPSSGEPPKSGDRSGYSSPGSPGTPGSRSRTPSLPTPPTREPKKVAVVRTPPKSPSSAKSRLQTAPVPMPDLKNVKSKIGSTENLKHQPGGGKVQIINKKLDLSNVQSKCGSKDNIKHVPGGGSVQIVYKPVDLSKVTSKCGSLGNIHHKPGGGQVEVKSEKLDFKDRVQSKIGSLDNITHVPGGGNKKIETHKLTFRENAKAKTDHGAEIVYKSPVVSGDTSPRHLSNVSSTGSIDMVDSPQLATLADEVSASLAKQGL
Text: N-terminal sequencing of fragments using mass spectrometry identified autoproteolytic cut sites. In particular, cutting at the Lys340-Ser341 (340KS341) cut site occurred readily. Therefore, a 19-amino acid peptide corresponding to amino acids 335G to 353L of tau protein was synthesized that contained the KS cut site (340KS341). The reaction was monitored by reverse-phase high-pressure liquid chromatography (HPLC). […] An asterisk marks a non-specific contaminant that was used as a marker. […] 10 μg of tau peptide 335-353 ([…]) (SEQ ID NO:19) was custom synthesized by Genscript (Piscataway, N.J., USA) and 1 mg was dissolved in 1 mL of buffer (25 mM Tris-HCl pH 7.4). […] of peptide was incubated with 11 μg of tau trimer protease in 30 μL buffer 20 hr at 37° C. and analyzed by HPLC [SystemGold® 32Karat™ LC-CE System, Beckman Coulter, Inc., (Indianapolis, Ind.)] using a linear gradient of acetonitrile in 0.1% TFA 0-60% acetonitrile on an analytical C18 column (12.5 cm×2.1 mm, 5 μm, (Supelco, Bellefonte, Pa., USA). 30 μg of peptide was incubated without tau protease as a negative control and analyzed with the same method;
The peptide assay for tau 4R2N trimer activity described in FIG. 5 was used to screen a series of serine protease inhibitors. 1 mM AEBSF was incubated with tau 4R2N trimer for 1 hr at room temperature before addition of the peptide substrate. […] The asterisk indicates an artifactual peak unrelated to the peptide;

[1] = system: tau protein from a specimen of Alzheimer's brain; assay: FP-TAMRA labeling of tau immunopurified from AD brain; conditions: AD brain lysate treated with PMSF before 2 μM FP-TAMRA probe
Text: Serine hydrolases include a class of enzymes that include serine proteases. The serine hydrolase superfamily is one of the largest known enzyme families that share a catalytic mechanism that involves a serine nucleophile. Phenylmethanesulfonyl fluoride (PMSF) irreversibly binds to the active site serine of serine hydrolases to inactivate their enzymatic activity and prevents the probe from labeling them. […] Protein was extracted from an AD brain by Dounce homogenization in TPER buffer (ThermoFisher Scientific) with 1 mM EDTA, 1 μg/mL pepstatin A, […] phosphoramidon, phosphatase inhibitor (ThermoFisher Scientific). The lysate was cleared by centrifugation at 10,000×g for 20 min. The supernatant was depleted for biotin using Streptavidin-agarose (ThermoFisher Scientific). A probe specific for active serine hydrolases, fluorophosphonate (FP) labeled with a fluorescent carboxytetramethylrhodamine (TAMRA) tag (ThermoFisher Scientific), was incubated with the lysate at a final concentration of 2 μM. As a control for non-specific labeling, a portion of the lysate was treated with phenylmethanesulfonyl fluoride (PMSF), an irreversible inhibitor of serine hydrolases, including tau protease, before using the FP-TAMRA probe. Biotinylated monoclonal antibody HT7 (ThermoFisher Scientific) was used to capture total tau from the lysate with streptavidin-agarose beads (ThermoFisher Scientific). […]

[2] = Tau protease enzymatic activity of truncated tau peptides (general statement)

O=S(=O)(F)Cc1ccccc1 [PMSF, phenylmethanesulfonyl fluoride]
inhibition of cleavage of the peptide (FIG. 14E) (tau 4R2N trimer protease): strongly inhibited
FP-TAMRA labeling of immunocaptured protein bands [1]: reduced labeling

TP-118: 118 amino acid truncated tau peptide, 4R2N 268-385 (SEQ ID NO:2)
tau protease enzymatic activity [2]: retain tau protease enzymatic activity
